# Assay results: ChEMBL document CHEMBL5154765, “Design, synthesis, and biological evaluation of novel spiro[pyrrolidine-2,3'-quinolin]-2'-one derivatives as potential chitin synthase inhibitors and antifungal agents” (Eur J Med Chem, 2022)
# Active and inactive are the calls of the source. The rule behind the calls is not given here.
# Key:
# [1] = system: Aspergillus fumigatus; experiment: Synergistic antifungal activity against Aspergillus fumigatus GIMCC 3.19 assessed as fractional inhibitory concentration index incubated for 72 hrs in presence of polyoxin B by checker board assay; format: functional
# [2] = system: Candida albicans; experiment: Antifungal activity against Candida albicans ATCC 76615 incubated for 72 hrs in presence of polyoxin B by checker board assay; format: functional
# [3] = system: Aspergillus flavus; experiment: Antifungal activity against Aspergillus flavus ATCC 16870 incubated for 72 hrs in presence of polyoxin B by checker board assay; format: functional
# [4] = system: Cryptococcus neoformans; experiment: Antifungal activity against Cryptococcus neoformans ATCC 32719 assessed as fluconazole MIC incubated for 72 hrs by checker board assay; format: functional
# [5] = system: Cryptococcus neoformans; experiment: Synergistic antifungal activity against Cryptococcus neoformans ATCC 32719 assessed as fractional inhibitory concentration index incubated for 72 hrs in presence of polyoxin B by checker board assay; format: functional
# [6] = system: Candida albicans; experiment: Antifungal activity against fluconazole resistant Candida albicans ATCC 76615 assessed as reduction in fungal growth incubated for 24 hrs by two fold broth dilution method; format: functional
# [7] = system: Aspergillus fumigatus; experiment: Antifungal activity against fluconazole resistant Aspergillus fumigatus GIMCC 3.19 assessed as reduction in fungal growth incubated for 24 hrs by two fold broth dilution method; format: functional
# [8] = system: Aspergillus fumigatus; experiment: Antifungal activity against Aspergillus fumigatus GIMCC 3.19 incubated for 72 hrs in presence of fluconazole by checker board assay; format: functional
# [9] = system: Aspergillus flavus; experiment: Antifungal activity against Aspergillus flavus ATCC 16870 assessed as reduction in fungal growth in presence of sorbitol incubated for 24 hrs by two fold broth dilution method; format: functional
# [10] = system: Aspergillus fumigatus; experiment: Antifungal activity against Aspergillus fumigatus GIMCC 3.19 assessed as fluconazole MIC incubated for 72 hrs by checker board assay; format: functional
# [11] = system: Aspergillus flavus; experiment: Antifungal activity against Aspergillus flavus ATCC 16870 assessed as fluconazole MIC incubated for 72 hrs by checker board assay; format: functional
# [12] = system: Cryptococcus neoformans; experiment: Synergistic antifungal activity against Cryptococcus neoformans ATCC 32719 assessed as fractional inhibitory concentration index incubated for 72 hrs in presence of fluconazole by checker board assay; format: functional
# [13] = system: Aspergillus fumigatus; experiment: Synergistic antifungal activity against Aspergillus fumigatus GIMCC 3.19 assessed as fractional inhibitory concentration index incubated for 72 hrs in presence of fluconazole by checker board assay; format: functional
# [14] = system: Candida albicans; experiment: Antifungal activity against Candida albicans ATCC 76615 assessed as polyoxin B MIC incubated for 72 hrs by checker board assay; format: functional
# [15] = system: Cryptococcus neoformans; experiment: Antifungal activity against Cryptococcus neoformans ATCC 32719 assessed as reduction in fungal growth in presence of sorbitol incubated for 24 hrs by two fold broth dilution method; format: functional
# [16] = system: Cryptococcus neoformans; experiment: Antifungal activity against fluconazole resistant Cryptococcus neoformans ATCC 32719 assessed as reduction in fungal growth incubated for 24 hrs by two fold broth dilution method; format: functional
# [17] = system: Cryptococcus neoformans; experiment: Antifungal activity against Cryptococcus neoformans ATCC 32719 assessed as reduction in fungal growth incubated for 24 hrs by two fold broth dilution method; format: functional
# [18] = system: Candida tropicalis; experiment: Inhibition of Candida tropicalis ATCC750 chitin synthase at 300 ug/ml using UDP-GlcNAc as substrate incubated for 1 hr by microplate reader analysis relative to control; details: dose 300.0 µg/ml
# [19] = system: Candida albicans; experiment: Synergistic antifungal activity against Candida albicans ATCC 76615 assessed as fractional inhibitory concentration index incubated for 72 hrs in presence of polyoxin B by checker board assay; format: functional
# [20] = system: Aspergillus fumigatus; experiment: Antifungal activity against Aspergillus fumigatus GIMCC 3.19 assessed as polyoxin B MIC incubated for 72 hrs by checker board assay; format: functional
# [21] = system: Cryptococcus neoformans; experiment: Antifungal activity against Cryptococcus neoformans ATCC 32719 assessed as polyoxin B MIC incubated for 72 hrs by checker board assay; format: functional
# [22] = system: Aspergillus flavus; experiment: Synergistic antifungal activity against Aspergillus flavus ATCC 16870 assessed as fractional inhibitory concentration index incubated for 72 hrs in presence of polyoxin B by checker board assay; format: functional
# [23] = system: Cryptococcus neoformans; experiment: Antifungal activity against Cryptococcus neoformans ATCC 32719 incubated for 72 hrs in presence of fluconazole by checker board assay; format: functional
# [24] = system: Cryptococcus neoformans; experiment: Antifungal activity against Cryptococcus neoformans ATCC 32719 incubated for 72 hrs in presence of polyoxin B by checker board assay; format: functional
# [25] = system: Candida albicans; experiment: Antifungal activity against micafungin resistant Candida albicans ATCC 76615 assessed as reduction in fungal growth incubated for 24 hrs by two fold broth dilution method; format: functional
# [26] = system: Candida albicans; experiment: Antifungal activity against Candida albicans ATCC 76615 assessed as reduction in fungal growth incubated for 24 hrs by two fold broth dilution method; format: functional
# [27] = system: Aspergillus flavus; experiment: Synergistic antifungal activity against Aspergillus flavus ATCC 16870 assessed as fractional inhibitory concentration index incubated for 72 hrs in presence of fluconazole by checker board assay; format: functional
# [28] = system: Candida albicans; experiment: Antifungal activity against Candida albicans ATCC 76615 assessed as fluconazole MIC incubated for 72 hrs by checker board assay; format: functional
# [29] = system: Aspergillus fumigatus; experiment: Antifungal activity against Aspergillus fumigatus GIMCC 3.19 assessed as reduction in fungal growth in presence of sorbitol incubated for 24 hrs by two fold broth dilution method; format: functional
# [30] = system: Aspergillus flavus; experiment: Antifungal activity against fluconazole resistant Aspergillus flavus ATCC 16870 assessed as reduction in fungal growth incubated for 24 hrs by two fold broth dilution method; format: functional
# [31] = Inhibition of Candida tropicalis ATCC750 chitin synthase using UDP-GlcNAc as substrate incubated for 1 hr by microplate reader analysis
# [32] = system: Candida albicans; experiment: Antifungal activity against Candida albicans ATCC 76615 assessed as reduction in fungal growth in presence of sorbitol incubated for 24 hrs by two fold broth dilution method; format: functional
# [33] = system: Aspergillus fumigatus; experiment: Antifungal activity against Aspergillus fumigatus GIMCC 3.19 assessed as reduction in fungal growth incubated for 24 hrs by two fold broth dilution method; format: functional
# [34] = system: Aspergillus flavus; experiment: Antifungal activity against Aspergillus flavus ATCC 16870 assessed as reduction in fungal growth incubated for 24 hrs by two fold broth dilution method; format: functional
# [35] = system: Aspergillus flavus; experiment: Antifungal activity against Aspergillus flavus ATCC 16870 incubated for 72 hrs in presence of fluconazole by checker board assay; format: functional
# [36] = system: Aspergillus fumigatus; experiment: Antifungal activity against Aspergillus fumigatus GIMCC 3.19 incubated for 72 hrs in presence of polyoxin B by checker board assay; format: functional
# [37] = system: Aspergillus flavus; experiment: Antifungal activity against Aspergillus flavus ATCC 16870 assessed as polyoxin B MIC incubated for 72 hrs by checker board assay; format: functional
# [38] = system: Candida albicans; experiment: Synergistic antifungal activity against Candida albicans ATCC 76615 assessed as fractional inhibitory concentration index incubated for 72 hrs in presence of fluconazole by checker board assay; format: functional
# [39] = system: Candida albicans; experiment: Antifungal activity against Candida albicans ATCC 76615 incubated for 72 hrs in presence of fluconazole by checker board assay; format: functional
# [40] = system: Candida tropicalis; experiment: Noncompetitive inhibition of Candida tropicalis ATCC750 assessed as decrease in Vmax with constant Km at 0.05 to 0.15 mM using UDP-GlcNAc as substrate incubated for 10 hrs by Lineweaver-burk plot analysis; details: dose 0.05-0.15 mM
# [41] = Binding affinity to Candida tropicalis ATCC750 chitin synthase assessed as inhibition constant using UDP-GlcNAc as substrate incubated for 10 hrs by Lineweaver-burk plot analysis
compound,measurement,setting,value
O=C(/C=C/C(=O)N1CCCC12Cc1ccccc1NC2=O)Nc1ccc(F)cc1 (stereo not given),fractional inhibitory concentration index (FICI),[1],0.75
same,MIC,[2],1 µg/mL
same,MIC,[3],8 µg/mL
same,MIC,[4],4 µg/mL
same,fractional inhibitory concentration index (FICI),[5],1.5
same,MIC,[6],64 µg/mL
same,MIC,[7],256 µg/mL
same,MIC,[8],2 µg/mL
same,MIC,[9],64 µg/mL
same,MIC,[10],2 µg/mL
same,MIC,[11],2 µg/mL
same,fractional inhibitory concentration index (FICI),[12],0.75
same,fractional inhibitory concentration index (FICI),[13],0.75
same,MIC,[14],4 µg/mL
same,MIC,[15],64 µg/mL
same,MIC,[16],256 µg/mL
same,MIC,[17],8 µg/mL
same,inhibition,[18],77.9%
same,fractional inhibitory concentration index (FICI),[19],0.75
same,MIC,[20],2 µg/mL
same,MIC,[21],8 µg/mL
same,fractional inhibitory concentration index (FICI),[22],1.5
same,MIC,[23],2 µg/mL
same,MIC,[24],8 µg/mL
same,MIC,[25],64 µg/mL
same,MIC,[26],4 µg/mL
same,fractional inhibitory concentration index (FICI),[27],0.75
same,MIC,[28],1 µg/mL
same,MIC,[29],128 µg/mL
same,MIC,[30],32 µg/mL
same,IC50,[31],130 µM
same,MIC,[32],32 µg/mL
same,MIC,[33],8 µg/mL
same,MIC,[34],8 µg/mL
same,MIC,[35],4 µg/mL
same,MIC,[36],4 µg/mL
same,MIC,[37],4 µg/mL
same,fractional inhibitory concentration index (FICI),[38],0.75
same,MIC,[39],2 µg/mL
O=C(/C=C/C(=O)N1CCCC12Cc1ccccc1NC2=O)Nc1cccc([N+](=O)[O-])c1 (stereo not given),fractional inhibitory concentration index (FICI),[1],1.5
same,MIC,[2],2 µg/mL
same,MIC,[3],4 µg/mL
same,MIC,[4],1 µg/mL
same,fractional inhibitory concentration index (FICI),[5],0.75
same,MIC,[6],32 µg/mL
same,MIC,[7],32 µg/mL
same,MIC,[8],0.5 µg/mL
same,MIC,[9],64 µg/mL
same,MIC,[10],4 µg/mL
same,MIC,[11],1 µg/mL
same,fractional inhibitory concentration index (FICI),[12],0.63
same,fractional inhibitory concentration index (FICI),[13],1.13
same,MIC,[14],4 µg/mL
same,MIC,[15],64 µg/mL
same,MIC,[16],64 µg/mL
same,MIC,[17],8 µg/mL
same,inhibition,[18],83.4%
same,fractional inhibitory concentration index (FICI),[19],1.5
same,MIC,[20],4 µg/mL
same,MIC,[21],4 µg/mL
same,fractional inhibitory concentration index (FICI),[22],1.5
same,MIC,[23],4 µg/mL
same,MIC,[24],4 µg/mL
same,MIC,[25],32 µg/mL
same,MIC,[26],2 µg/mL
same,fractional inhibitory concentration index (FICI),[27],0.63
same,inhibition,[40],Active
same,MIC,[28],1 µg/mL
same,MIC,[29],128 µg/mL
same,MIC,[30],32 µg/mL
same,IC50,[31],100 µM
same,MIC,[32],16 µg/mL
same,MIC,[33],4 µg/mL
same,MIC,[34],4 µg/mL
same,MIC,[35],2 µg/mL
same,MIC,[36],4 µg/mL
same,MIC,[37],4 µg/mL
same,fractional inhibitory concentration index (FICI),[38],0.75
same,Ki,[41],110 µM
same,MIC,[39],1 µg/mL
